Where “and” joins values, the source holds several entries; their conditions need not be identical. Identical values can stand only once. ± gives the uncertainty stated by the source. One block for each compound: values may come before it.
Structure (SMILES): ClC(Cl)(Cl)c1ccccc1
viscosity (298.15 K, 101.33 kPa): 2.18 ± 0.019 mPa·s

Structure (SMILES): O=S(=O)(Cl)Cl
viscosity (298.15 K, 101 kPa): 0.685 ± 0.018 mPa·s

Structure (SMILES): Cc1cccc(C)c1
viscosity (293.15 K, 100 kPa): 0.614 ± 0.03 mPa·s | viscosity (293.15 K, 101 kPa): 0.5522 ± 0.0085 mPa·s and 0.627 ± 0.013 mPa·s | viscosity (298.15 K, 101 kPa): 0.5821 ± 0.0073 mPa·s and 0.5848 ± 0.016 mPa·s | viscosity (298.15 K, 101.3 kPa): 0.586 ± 0.016 mPa·s and 0.58 ± 0.016 mPa·s | viscosity (303 K, 101 kPa): 0.5456 ± 0.0046 mPa·s and 0.5455 ± 0.0046 mPa·s | viscosity (303.15 K, 101.3 kPa): 0.543 ± 0.015 mPa·s and 0.548 ± 0.015 mPa·s and 0.5471 ± 0.015 mPa·s | viscosity (303.15 K, 101.33 kPa): 0.555 ± 0.006 mPa·s | viscosity (308.15 K, 100 kPa): 0.4712 ± 0.057 mPa·s | viscosity (308.15 K, 101 kPa): 0.5329 ± 0.0055 mPa·s | viscosity (308.15 K, 101.3 kPa): 0.519 ± 0.015 mPa·s | viscosity (308.15 K, 101.33 kPa): 0.5218 ± 0.0067 mPa·s and 0.542 ± 0.004 mPa·s and 0.527 ± 0.005 mPa·s | viscosity (308.5 K, 101 kPa): 0.547 ± 0.015 mPa·s | viscosity (313 K, 101 kPa): 0.4931 ± 0.0042 mPa·s and 0.492 ± 0.0042 mPa·s | viscosity (313.15 K, 100 kPa): 0.492 ± 0.03 mPa·s | viscosity (313.15 K, 101 kPa): 0.4463 ± 0.0073 mPa·s and 0.522 ± 0.014 mPa·s and 0.4923 ± 0.0091 mPa·s | viscosity (313.15 K, 101.3 kPa): 0.49 ± 0.014 mPa·s | viscosity (323 K, 101 kPa): 0.4487 ± 0.0039 mPa·s | viscosity (323.15 K, 101 kPa): 0.3949 ± 0.0068 mPa·s and 0.4488 ± 0.013 mPa·s | viscosity (323.15 K, 101.3 kPa): 0.439 ± 0.013 mPa·s

Structure (SMILES): O=S1(=O)CCCC1
viscosity (298.15 K, 101.3 kPa): 10.28 ± 0.13 mPa·s | viscosity (308.15 K, 100 kPa): 8.795 ± 0.17 mPa·s | viscosity (308.15 K, 101.3 kPa): 8.258 ± 0.11 mPa·s | viscosity (318.15 K, 101 kPa): 7.18 ± 0.72 mPa·s and 7.17 ± 0.74 mPa·s and 6.912 ± 0.037 mPa·s | viscosity (318.15 K, 101.3 kPa): 6.256 ± 0.085 mPa·s | viscosity (323.15 K, 101.33 kPa): 6.346 ± 0.032 mPa·s

Structure (SMILES): NCCCO
viscosity (303.15 K, 101 kPa): 24.12 ± 0.43 mPa·s | viscosity (308.15 K, 101 kPa): 18.98 ± 0.34 mPa·s | viscosity (318.15 K, 101 kPa): 12.35 ± 0.51 mPa·s

Structure (SMILES): c1ccc2sccc2c1
viscosity (308.15 K, 101 kPa): 2.94 ± 0.4 mPa·s | viscosity (318.15 K, 101 kPa): 2.06 ± 0.13 mPa·s

Structure (SMILES): CCC[n+]1ccn(C)c1C.O=S(=O)([N-]S(=O)(=O)C(F)(F)F)C(F)(F)F
viscosity (298.15 K, 101 kPa): 85.6 ± 2.5 mPa·s

Structure (SMILES): Nc1ccccc1Cl
viscosity (298.15 K, 100 kPa): 4.209 ± 0.089 mPa·s | viscosity (298.15 K, 101 kPa): 2.973 ± 0.029 mPa·s and 2.974 ± 0.027 mPa·s | viscosity (303.15 K, 100 kPa): 3.825 ± 0.081 mPa·s | viscosity (308.15 K, 100 kPa): 3.413 ± 0.072 mPa·s | viscosity (313.15 K, 100 kPa): 3.06 ± 0.065 mPa·s | viscosity (318.15 K, 100 kPa): 2.762 ± 0.059 mPa·s

Structure (SMILES): CC(O)CC(C)(C)O (centres undefined)
viscosity (308.15 K, 101 kPa): 20.29 ± 2 mPa·s and 20.37 ± 2 mPa·s | viscosity (318.15 K, 101 kPa): 17.79 ± 1.8 mPa·s and 17.73 ± 1.8 mPa·s

Structure (SMILES): CCCCOCCOCCO
viscosity (298.15 K, 100 kPa): 5.11 ± 0.15 mPa·s | viscosity (298.15 K, 101 kPa): 4.877 ± 0.065 mPa·s | viscosity (298.15 K, 101.33 kPa): 5.232 ± 0.057 mPa·s and 5.232 ± 0.12 mPa·s | viscosity (303.15 K, 100 kPa): 4.345 ± 0.15 mPa·s | viscosity (308.15 K, 100 kPa): 3.872 ± 0.15 mPa·s | viscosity (308.15 K, 101 kPa): 3.582 ± 0.048 mPa·s | viscosity (318.15 K, 101 kPa): 2.943 ± 0.038 mPa·s

viscosity (298.15 K, 101 kPa): 13.11 ± 0.29 mPa·s | viscosity (308.15 K, 101 kPa): 8.963 ± 0.2 mPa·s | viscosity (318.15 K, 101 kPa): 6.508 ± 0.15 mPa·s and 6.58 ± 0.15 mPa·s
Structure (SMILES): OC1COCOC1

viscosity (293.15 K, 101 kPa): 133.5 ± 4.5 mPa·s and 127.6 ± 8.5 mPa·s | viscosity (293.15 K, 101.33 kPa): 125.3 ± 19 mPa·s | viscosity (295.2 K, 101 kPa): 122.9 ± 19 mPa·s | viscosity (303.15 K, 101.33 kPa): 81.85 ± 3.4 mPa·s and 87.7 ± 13 mPa·s | viscosity (308.15 K, 101.33 kPa): 63.57 ± 2.6 mPa·s and 72.5 ± 11 mPa·s | viscosity (313.15 K, 101.33 kPa): 57.7 ± 8.7 mPa·s | viscosity (318.15 K, 101 kPa): 42.6 ± 0.9 mPa·s and 38.72 ± 2.3 mPa·s | viscosity (323.15 K, 101 kPa): 34.52 ± 0.56 mPa·s | viscosity (323.15 K, 101.33 kPa): 34.8 ± 1.4 mPa·s
Structure (SMILES): CCCCn1cc[n+](C)c1.F[B-](F)(F)F
viscosity (308.15 K, 101 kPa): 65 ± 1.3 mPa·s and 61.5 ± 7.9 mPa·s and 58.36 ± 3.5 mPa·s | viscosity (313.15 K, 101 kPa): 52.2 ± 1.1 mPa·s and 50.52 ± 0.74 mPa·s and 46.22 ± 2.8 mPa·s

Structure (SMILES): Cc1ccccc1N
viscosity (298.15 K, 100 kPa): 3.718 ± 0.079 mPa·s | viscosity (298.15 K, 101 kPa): 3.645 ± 0.097 mPa·s | viscosity (303.15 K, 100 kPa): 3.258 ± 0.065 mPa·s and 3.258 ± 0.07 mPa·s and 3.26 ± 0.1 mPa·s | viscosity (303.15 K, 101 kPa): 3.1 ± 0.08 mPa·s | viscosity (308.15 K, 100 kPa): 2.824 ± 0.064 mPa·s and 2.824 ± 0.061 mPa·s and 2.82 ± 0.09 mPa·s | viscosity (313.15 K, 100 kPa): 2.487 ± 0.063 mPa·s and 2.487 ± 0.053 mPa·s and 2.49 ± 0.08 mPa·s | viscosity (318.15 K, 100 kPa): 2.153 ± 0.063 mPa·s and 2.153 ± 0.047 mPa·s and 2.15 ± 0.07 mPa·s

Structure (SMILES): Cc1ccc(O)cc1
viscosity (293.15 K, 101 kPa): 18.95 ± 0.32 mPa·s | viscosity (298.15 K, 101 kPa): 13.93 ± 0.99 mPa·s and 14.74 ± 0.24 mPa·s | viscosity (313.15 K, 101.3 kPa): 6.661 ± 0.081 mPa·s | viscosity (318.15 K, 101 kPa): 5.795 ± 0.48 mPa·s and 5.292 ± 0.039 mPa·s (2×) | viscosity (323.15 K, 101.3 kPa): 4.48 ± 0.056 mPa·s | viscosity (323.15 K, 101.33 kPa): 4.62 ± 0.046 mPa·s

viscosity (293.15 K, 100 kPa): 4.036 ± 0.012 mPa·s | viscosity (293.15 K, 101.33 kPa): 3.647 ± 0.032 mPa·s | viscosity (303 K, 101.33 kPa): 2.195 ± 0.23 mPa·s | viscosity (303.15 K, 101.3 kPa): 3.177 ± 0.036 mPa·s | viscosity (308.15 K, 101 kPa): 2 ± 0.6 mPa·s and 2.179 ± 0.034 mPa·s | viscosity (308.15 K, 101.3 kPa): 2.582 ± 0.016 mPa·s | viscosity (318.15 K, 101 kPa): 1.58 ± 0.6 mPa·s and 1.566 ± 0.025 mPa·s | viscosity (318.15 K, 101.33 kPa): 1.62 mPa·s | viscosity (323.15 K, 100 kPa): 1.626 ± 0.0049 mPa·s | viscosity (323.15 K, 101 kPa): 1.41 ± 0.6 mPa·s
Structure (SMILES): CCC(C)O (centres undefined)
viscosity (298.15 K, 101.33 kPa): 2.925 ± 0.035 mPa·s and 2.857 ± 0.025 mPa·s | viscosity (303.15 K, 101 kPa): 2.742 ± 0.022 mPa·s and 2.27 ± 0.6 mPa·s and 2.741 ± 0.032 mPa·s | viscosity (303.15 K, 101.33 kPa): 2.417 ± 0.029 mPa·s and 2.741 ± 0.032 mPa·s | viscosity (308.15 K, 101.33 kPa): 2.034 ± 0.2 mPa·s and 2.011 ± 0.024 mPa·s
